From PubChem BioAssay AID651601 (Sanford-Burnham Center for Chemical Genomics, 2012)

Tests used:
Assay in all cases: chemokine receptor panel antagonism: CCR6, CXCR5, CXCR6, profiling panel, selectivity assay for CXCR6 antagonist project, cell-based, CHO-K1 PathHunter beta-arrestin, luminescence (AID 651601)
Settings in all cases: antagonist mode
[1] = molecular target: C-X-C chemokine receptor type 6 (Homo sapiens) (UniProt O00574)
[2] = molecular target: C-C chemokine receptor type 6 (Homo sapiens) (UniProt P51684)
C-C chemokine receptor type 6 (Homo sapiens), sequence (P51684 whole entry, looked up): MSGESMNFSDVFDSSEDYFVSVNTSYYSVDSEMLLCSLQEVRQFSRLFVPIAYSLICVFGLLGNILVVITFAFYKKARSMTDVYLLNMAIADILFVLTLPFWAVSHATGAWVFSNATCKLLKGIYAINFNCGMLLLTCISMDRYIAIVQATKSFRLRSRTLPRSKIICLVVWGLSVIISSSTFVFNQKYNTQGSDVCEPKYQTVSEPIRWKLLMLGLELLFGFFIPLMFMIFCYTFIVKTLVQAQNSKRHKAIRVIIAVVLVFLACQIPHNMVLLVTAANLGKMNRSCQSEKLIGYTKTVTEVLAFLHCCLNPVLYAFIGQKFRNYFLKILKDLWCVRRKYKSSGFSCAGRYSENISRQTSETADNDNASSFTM

[3] = molecular target: C-X-C chemokine receptor type 5 (Homo sapiens) (UniProt P32302)
C-X-C chemokine receptor type 5 (Homo sapiens), sequence (P32302 whole entry, looked up): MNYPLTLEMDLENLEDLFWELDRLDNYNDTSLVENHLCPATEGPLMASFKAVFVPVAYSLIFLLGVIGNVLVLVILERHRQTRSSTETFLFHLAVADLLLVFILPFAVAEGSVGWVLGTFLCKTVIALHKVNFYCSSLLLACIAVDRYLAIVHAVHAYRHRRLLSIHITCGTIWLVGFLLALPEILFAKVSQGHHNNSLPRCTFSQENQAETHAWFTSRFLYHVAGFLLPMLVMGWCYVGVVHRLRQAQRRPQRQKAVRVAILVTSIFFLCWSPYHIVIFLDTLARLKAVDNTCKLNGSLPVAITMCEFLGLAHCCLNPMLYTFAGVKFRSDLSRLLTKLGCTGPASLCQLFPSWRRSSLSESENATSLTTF

[4] = CXCR6, mean of runs, mean IC50 across replicates
[5] = CCR6, mean of runs, mean IC50 across replicates
[6] = CXCR5, mean of runs, mean IC50 across replicates

C-X-C chemokine receptor type 6 (Homo sapiens), sequence (O00574 whole entry, looked up): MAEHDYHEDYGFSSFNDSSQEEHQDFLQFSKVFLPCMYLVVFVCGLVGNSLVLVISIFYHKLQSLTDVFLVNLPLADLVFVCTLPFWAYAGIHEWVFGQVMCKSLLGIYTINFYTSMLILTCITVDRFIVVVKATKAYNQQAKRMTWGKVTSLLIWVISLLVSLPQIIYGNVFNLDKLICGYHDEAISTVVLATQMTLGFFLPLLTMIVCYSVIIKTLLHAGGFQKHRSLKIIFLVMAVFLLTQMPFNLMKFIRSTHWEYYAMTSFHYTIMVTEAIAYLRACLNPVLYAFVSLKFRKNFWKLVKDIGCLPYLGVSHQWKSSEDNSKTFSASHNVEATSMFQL

SMILES | IC50 [1, 4] | IC50 ([1]; CXCR6, run 1) | IC50 ([1]; CXCR6, run 2) | IC50 ([1]; CXCR6, run 3) | IC50 ([1]; CXCR6, run 4) | IC50 [2, 5] | IC50 ([2]; CCR6, run 1) | IC50 ([2]; CCR6, run 2) | IC50 ([2]; CCR6, run 3) | IC50 ([2]; CCR6, run 4) | IC50 [3, 6] | IC50 ([3]; CXCR5, run 1) | IC50 ([3]; CXCR5, run 2)
O=C(CN1C2CCCC1CC(NC(=O)c1ccccc1)C2)Nc1ccccc1 (stereo not drawn) | > 80 µM | > 80 µM | > 80 µM | > 80 µM | > 80 µM | > 80 µM | > 80 µM | > 80 µM | > 80 µM | > 80 µM | > 66.6 µM | > 66.6 µM | > 66.6 µM
COc1cc(C(=O)NC2CC3CCCC(C2)N3CC(=O)Nc2ccccc2)cc(OC)c1OC (stereo not drawn) | 14.3 µM | 4.79 µM | 5.96 µM | 5.86 µM | 40.6 µM | > 80 µM | > 80 µM | > 80 µM | > 80 µM | > 80 µM | > 66.6 µM | > 66.6 µM | > 66.6 µM
O=C(CN1C2CCCC1CC(NC(=O)c1ccccc1)C2)Nc1ccccc1C(F)(F)F (stereo not drawn) | > 80 µM | > 80 µM | > 80 µM | > 80 µM | > 80 µM | > 80 µM | > 80 µM | > 80 µM | > 80 µM | > 80 µM | > 66.6 µM | > 66.6 µM | > 66.6 µM

Results, then the molecule that gave them:

IC50 [1, 4] | IC50 ([1]; CXCR6, run 1) | IC50 ([1]; CXCR6, run 2) | IC50 ([1]; CXCR6, run 3) | IC50 ([1]; CXCR6, run 4) | IC50 [2, 5] | IC50 ([2]; CCR6, run 1) | IC50 ([2]; CCR6, run 2) | IC50 ([2]; CCR6, run 3) | IC50 ([2]; CCR6, run 4) | IC50 [3, 6] | IC50 ([3]; CXCR5, run 1) | IC50 ([3]; CXCR5, run 2) | SMILES
> 80 µM | > 80 µM | > 80 µM | > 80 µM | > 80 µM | > 80 µM | > 80 µM | > 80 µM | > 80 µM | > 80 µM | > 66.6 µM | > 66.6 µM | > 66.6 µM | COc1cccc(C(=O)NC2CC3CCCC(C2)N3CC(=O)Nc2ccccc2C(F)(F)F)c1 (stereo not drawn)
> 80 µM | > 80 µM | > 80 µM | > 80 µM | > 80 µM | > 80 µM | > 80 µM | > 80 µM | > 80 µM | > 80 µM | > 66.6 µM | > 66.6 µM | > 66.6 µM | CN(C)c1ccc(NC(=O)CN2C3CCCC2CC(NC(=O)c2ccccc2)C3)cc1 (stereo not drawn)
> 80 µM | > 80 µM | > 80 µM | > 80 µM | > 80 µM | > 80 µM | > 80 µM | > 80 µM | > 80 µM | > 80 µM | > 66.6 µM | > 66.6 µM | > 66.6 µM | COc1cccc(C(=O)NC2CC3CCCC(C2)N3CC(=O)Nc2ccc(N(C)C)cc2)c1 (stereo not drawn)
